Eight compounds from publication PMC5900025, “Naphthoquinone Derivatives as Scaffold to Develop New Drugs for Tuberculosis Treatment” (Frontiers in Microbiology, 2018) can be followed below.

What all share (assay type): cell-based
The subject of test [1] is M. tuberculosis pan-susceptible H37Rv (ATCC 27294). The test is described as follows: microbe, parasite or virus in culture. The settings on record: REMA, 7 days at 37°C.
The test system of test [2] is J774A.1 macrophage cell line (ATCC TIB-67). Put plainly: Cytotoxicity assay (resazurin). The settings on record: Mus musculus, J774.A1. For orientation: The colour change of resazurin is a common sign of viable cells or microbes.
Test [3] deals with three M. tuberculosis strains (H37Rv, INHR, RMPR). Put plainly: microbe, parasite or virus in culture. The settings on record: Mycobacterium tuberculosis, stated for all three strains together.
[4] abbreviates: Mycobacterium tuberculosis, 168 h, read-out: MIC.
Setting [5] is: J774A.1 cells, concentration maintaining viability of 50% of the cells.
Setting [6] is: Mycobacterium tuberculosis, 168 h.

SMILES strings stand for the structures. In brackets after ≈: the same amount, converted by molar mass. Where two headings read alike, the source gives them in different places.

The IC50 is the concentration that inhibits the measured activity by half. High values mean lower potency, low ones higher potency. As for `CO[C@H]1/C=C/O[C@@]2(C)Oc3c(C)c(O)c4c(O)c(c(/C=N/N5CCN(C)CC5)c(O)c4c3C2=O)NC(=O)/C(C)=C\C=C\[C@H](C)[C@H](O)[C@@H](C)[C@@H](O)[C@@H](C)[C@H](OC(C)=O)[C@@H]1C` [RIF, rifampicin, reference compound], in test [1] (setting [4]), the MIC was 0.608 µM (≈ 0.5 µg/mL). The IC50 in test [2] (setting [5]) was more than 2490 µM.

As for `CC1(C)CC2=C(O1)C(=O)c1ccccc1C2=O` [Compound 3, 2,2-Dimethyl-2,3-dihydronaphtho[2,3-b]furan-4,9-dione], the MIC in test [1] (setting [4]) and in test [3] was 54.8 µM (≈ 12.5 µg/mL) each time. Moreover, the IC50 in test [2] (setting [5]) was more than 877 µM.

For the compound `O=C1C(Cl)=C(Cl)C(=O)c2ccccc21` [Compound 1, 2,3-Dichloronaphthalene-1,4-dione], the MIC in test [1] (setting [4]) and in test [3] was 111 µM (≈ 25.1 µg/mL) each time. Also, half-maximal inhibition in test [2] (IC50) required 103 µM.

`C=CCOC1=CC(=O)c2ccccc2C1=O` [Compound 4, 2-(Allyloxy)naphthalene-1,4-dione] gave an MIC in test [1] (setting [6]) of 58.4 µM (≈ 12.5 µg/mL). The compound further gave an IC50 in test [2] (setting [5]) of 173 µM.

Consider `NNC(=O)c1ccncc1` [INH, isoniazid, reference compound], for which the MIC in test [1] (setting [4]) is 0.438 µM (≈ 0.0601 µg/mL). In test [2] (setting [5]), it took 3730 µM to reach half-maximal inhibition (IC50).

Take `NC1=CC(=O)c2ccccc2C1=O` [Compound 5, 2-Aminonaphthalene-1,4-dione]: in test [1] (setting [4]), the MIC worked out at 72.2 µM (≈ 12.5 µg/mL). In test [2], this compound came in with an IC50 of more than 1160 µM.

Regarding `CC1(C)CCC2=C(O1)C(=O)c1ccccc1C2=O` [Compound 2, 2,2-Dimethyl-3,4-dihydro-2H-benzo[g]chromene-5, 10-dione], the MIC in test [1] (setting [4]) is 103 µM (≈ 25 µg/mL); in test [3], 103 to 207 µM (≈ 25 to 50.1 µg/mL). The same compound returned an IC50 in test [2] (setting [5]) of 285 µM.

For `O=C1C=C(Nc2ccccc2)C(=O)c2ccccc21` [Compound 6, 2-(Phenylamino)naphthalene-1,4-dione], the values for the MIC in test [1] (setting [6]) and in test [1] (read-out: MIC) were 110 µM (≈ 27.5 µg/mL) and 100.4 µM (≈ 25 µg/mL), respectively. The compound further had an IC50 in test [2] (setting [5]) of more than 803 µM.
